Patent US20190194148A1, “TETRAZOLE-CONTAINING 1,2-CYCLOPROPANE-CARBOXAMIDES” (Bayer Pharma Aktiengesellschaft, priority 2017, published 2019)
pIC50: −log10 of the molar value. Read-outs that look alike come from different tables or passages of the source.

Key:
human B1 receptor = target: T1, human B1 receptor (Homo sapiens, UniProt P46663); experiment: Calcium flux assay (FLIPR) with recombinant CHO-K1 cells expressing human B1 receptor; type: cell-based
T1 construct: host or cells: CHO-K1
T1 sequence (P46663 1-353): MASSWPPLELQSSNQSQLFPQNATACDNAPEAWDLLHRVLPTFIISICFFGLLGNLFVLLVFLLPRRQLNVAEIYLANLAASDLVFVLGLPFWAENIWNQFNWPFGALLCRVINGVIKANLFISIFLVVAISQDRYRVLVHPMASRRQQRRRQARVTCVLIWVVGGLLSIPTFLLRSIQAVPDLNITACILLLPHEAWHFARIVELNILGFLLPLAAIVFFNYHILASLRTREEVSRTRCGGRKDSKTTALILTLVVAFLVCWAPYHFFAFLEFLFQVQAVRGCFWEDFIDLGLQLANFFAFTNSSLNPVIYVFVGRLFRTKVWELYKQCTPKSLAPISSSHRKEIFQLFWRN
Summary of the method: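 Indicator-loaded CHO-K1 cells expressing human B1 receptor were pre-incubated with compound (8 concentrations, triplicate, 1% DMSO) for 30 min at 28° C, in assay buffer with or without 0.1% BSA (hB1 IC50 vs free IC50). They were then challenged with Lys-(Des-Arg)-bradykinin from plates at 3.5×EC90, with peak FLIPR fluorescence read at 538 nm. IC50 was fitted from % response between DMSO and full block by 20 μM Lys-(Des-Arg-Leu)-bradykinin.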

[1] = target: T2, native human B1 receptors (Homo sapiens, UniProt P46663); experiment: Calcium flux assay (FLIPR) with IMR-90 human fibroblasts for Bradykinin B1 receptor antagonist; type: cell-based; conditions: IMR-90 human foetal lung fibroblasts after induction with human IL-1; 0.1% BSA in assay buffer; read-out: hB1 IC50 IMR90
T2 construct: which express native human B1 receptors after induction with human IL-1; Coriell Institute; host or cells: IMR-90 human foetal lung fibroblasts, induced with human IL-1beta
T2 sequence (P46663 1-353): T1 sequence (P46663 1-353)
Description: Calcium Flux Assay (FLIPR) with Human Fibroblasts for Bradykinin B1 Receptor Antagonist (hB1 IMR-90 IC50)
The Calcium flux Assay was carried out utilising IMR-90 human foetal lung fibroblasts (American Type Culture Collection, Rockville, Md.; and Coriell Institute, Camden, N.J.), which express native human B1 receptors after induction with human IL-1[…].
The fibroblasts were cultured in complete growth media comprised of Dulbecco's modified Eagle's medium (DMEM; Sigma) containing 10% foetal bovine serum, 4 mM L-glutamine, and 1% nonessential amino acids. The cells were maintained in a humidified atmosphere with 5% CO2 at 37° C. and were sub-cultured at a ratio of 1:3, every other day.
For the assay, IMR-90 fibroblasts were harvested using TrypLE Express (GIBCO/Invitrogen) and seeded into 384-well plates (Corning Cellbinding Surface, Cat. 3683) at a density of 15000 cells/well. The following day, cells were treated with 0.35 ng/mL human IL-1[…] in 10% FBS/MEM for 3 h to up-regulate B1 receptors. Induced cells were loaded with fluorescent calcium indicator by incubation with 2.5 μM Fluo-4/AM (Invitrogen) at 37° C., 5% CO2 for 2 h in the presence of 2.5 mM probenecid in 1% FBS/MEM. Extracellular dye was removed by washing with assay buffer (2.5 mM probenecid and 0.1% BSA in 20 mM HEPES/HBSS without bicarbonate or phenol red, pH 7.5). Example compounds were assayed at 8 concentrations in triplicate. […] A peptide antagonist Lys-(Des-Arg-Leu)-Bradykinin (Bachem, Brackley) at 20 µM was used to determine the full inhibition as control. IC50 values were determined by the same way described for the FLIPR assay with recombinant cells.

IL-6 secretion = experiment: Bradykinin B1 receptor agonist-induced secretion of IL-6 in human IMR-90 cells; type: cell-based; conditions: IMR-90 cells stimulated with 0.1 μM Lys-[Des-Arg9]Bradykinin and 0.1 μM Sar-[D-Phe8]-des-Arg9-Bradykinin for 5 hours
Description: (§1) Inhibitory Activity on Bradykinin B1 Receptor Agonist-Induced Secretion of IL-6 and IL-8 in Human IMR-90 Cells
(§2) The effect of the example compounds on cytokine secretion has been investigated in the human fetal lung fibroblast IMR-90 cell line. Here the induction of the cytokine secretion was induced by the Bradykinin B1 receptor agonists Lys-[Des-Arg9]Bradykinin and Sar-[D-Phe8]-des-Arg9-Bradykinin leading to the activation of the Bradykinin B1 receptor-driven signaling pathway.
(§3) IMR-90 cells were cultured in Eagle's Minimum Essential Medium (EMEM) containing 2 mM L-glutamine, 1 g/L glucose, 1.5 g/L NaHCO3, 1 mM sodium pyruvate and non-essential amino acids (ATCC, 30-2003™) supplemented with 10% FBS (Biochrom, S0615) and 50 U/mL Penicillin, 50 μg/mL Streptomycin (PAA, P11-010). The assay was performed in EMEM and a cell density of […] IMR-90 cells/96-well. The example compounds have been serial diluted in 100% DMSO and evaluated at 8 different concentrations within the range of 3 nM and 10 μM and a final DMSO concentration of 0.4%. […] The amount of IL-6 and IL-8 in the supernatant was determined using the Human Prolnflammatory 9-Plex (MSD, K15007B) according to manufacturer's instruction. The cell viability was measured using the CellTiter-Glo Luminescent Assay (Promega, G7571) following the manufacturers protocol. […]

IL-8 secretion = experiment: Bradykinin B1 receptor agonist-induced secretion of IL-8 in human IMR-90 cells; type: cell-based; conditions: IMR-90 cells stimulated with 0.1 μM Lys-[Des-Arg9]Bradykinin and 0.1 μM Sar-[D-Phe8]-des-Arg9-Bradykinin for 5 hours
Description: as §1, §2, §3

IMR-90 cells = experiment: Cell viability of stimulated IMR-90 cells (CellTiter-Glo); type: cell-based, human
Description: IMR-90 cells were cultured in Eagle's Minimum Essential Medium (EMEM) containing 2 mM L-glutamine, 1 g/L glucose, 1.5 g/L NaHCO3, 1 mM sodium pyruvate and non-essential amino acids (ATCC, 30-2003™) supplemented with 10% FBS (Biochrom, S0615) and 50 U/mL Penicillin, 50 μg/mL Streptomycin (PAA, P11-010). The assay was performed in EMEM and a cell density of […] IMR-90 cells/96-well. The example compounds have been serial diluted in 100% DMSO and evaluated at 8 different concentrations within the range of 3 nM and 10 μM and a final DMSO concentration of 0.4%. The IMR-90 cells have been incubated with the respective concentration of the example compound for 30 min. The enhanced secretion of IL-6 and IL-8 was induced by the stimulation of these cells with 0.1 μM Lys-[Des-Arg9]Bradykinin (Tocris, 3225) and 0.1 μM Sar-[D-Phe8]-des-Arg9-Bradykinin (Tocris, 3230) for 5 hours at 37° C. and 5% CO2. Further, cells have been treated with Lys-[Des-Arg9] Bradykinin and Sar-[D-Phe8]-des-Arg9-Bradykinin as neutral control and with 0.1% DMSO as inhibitor control. The amount of IL-6 and IL-8 in the supernatant was determined using the Human Prolnflammatory 9-Plex (MSD, K15007B) according to manufacturer's instruction. The cell viability was measured using the CellTiter-Glo Luminescent Assay (Promega, G7571) following the manufacturers protocol.

[2] = absence of 0.1% BSA in assay buffer, read-out: hB1 free IC50
[3] = presence of 0.1% BSA in assay buffer, read-out: hB1 IC50

| SMILES | pIC50 (human B1 receptor; [2]) | pIC50 (human B1 receptor; [3]) | pIC50 [1] | pIC50 (IL-6 secretion) | pIC50 (IL-8 secretion) | effect on the cell viability (IMR-90 cells) |
| --- | --- | --- | --- | --- | --- | --- |
| COc1ccc(-c2ccc(NC(=O)C3CC3c3cccc(Cl)c3)cc2-c2nnn[nH]2)cc1OC (racemic) [Example 8, 2-(3-chlorophenyl)-N-[3′,4′-dimethoxy-2-(1H-tetrazol-5-yl)biphenyl-4-yl]cyclo-propanecarboxamide] | 7.92 | 8.10 | 8.10 |  |  |  |
| COc1ccc(-c2ccc(NC(=O)C3CC3C3CCC(C)CC3)cc2-c2nnn[nH]2)cc1OC (racemic) [Example 15, N-[3′,4′-dimethoxy-2-(1H-tetrazol-5-yl)biphenyl-4-yl]-2-(4-methylcyclohexyl)cyclo-propanecarboxamide] |  | 8.30 | 7.60 |  |  |  |
| CCOc1ccc(-c2ccc(NC(=O)C3CC3c3ccc(Cl)cc3)cc2-c2nnn[nH]2)cn1 (racemic) [Example 17, 2-(4-Chlorophenyl)-N-[4-(6-ethoxypyridin-3-yl)-3-(1H-tetrazol-5-yl)phenyl]cyclopro-panecarboxamide] | 8.30 | 7.01 | 7.92 |  |  |  |
| CCOc1ccc(-c2ccc(NC(=O)C3CC3c3cccc(C)c3)cc2-c2nnn[nH]2)cn1 (racemic) [Example 18, N-[4-(6-Ethoxypyridin-3-yl)-3-(1H-tetrazol-5-yl)phenyl]-2-(3-methylphenyl)cyclopro-panecarboxamide] | 8.30 | 7.82 | 8.22 |  |  |  |
| CCOc1ccc(-c2ccc(NC(=O)C3CC3c3cccc(Cl)c3)cc2-c2nnn[nH]2)cn1 (racemic) [Example 19, 2-(3-Chlorophenyl)-N-[4-(6-ethoxypyridin-3-yl)-3-(1H-tetrazol-5-yl)phenyl]cyclopro-panecarboxamide] | 8.22 |  | 8.00 |  |  |  |
| CCOc1ccc(-c2ccc(NC(=O)C3(C)CC3c3ccccc3)cc2-c2nnn[nH]2)cn1 (racemic) [Example 21, [4-(6-Ethoxypyridin-3-yl)-3-(1H-tetrazol-5-yl)phenyl]-1-methyl-2-phenylcyclopropane-carboxamide] | 7.85 | 7.66 | 7.66 |  |  |  |
| CC(C)(C)c1cn(-c2ccc(NC(=O)C3CC3c3ccc(Cl)cc3)cc2-c2nnn[nH]2)cn1 (racemic) [Example 48, N-[4-(4-tert-butyl-1H-imidazol-1-yl)-3-(1H-tetrazol-5-yl)phenyl]-2-(4-chlorophenyl)cyclo-propanecarboxamide] | 8.00 | 7.60 |  | 6.72 | 6.79 | no effect |
| CCOc1ccc(-c2cc(O)c(NC(=O)C3CC3c3cccc(C)c3)cc2-c2nnn[nH]2)cn1 (racemic) [Example 51, N-[4-(6-Ethoxypyridin-3-yl)-2-hydroxy-5-(1H-tetrazol-5-yl)phenyl]-2-(3-methylphenyl)cyclopro-panecarboxamide] | 8.52 | 7.96 | 8.10 |  |  |  |
| Cc1cccc(C2CC2C(=O)Nc2cc(-c3nnn[nH]3)c(-c3ccc(C(F)(F)F)nc3)cc2O)c1 (racemic) [Example 52, N-{2-Hydroxy-5-(1H-tetrazol-5-yl)-4-[6-(trifluoromethyl)pyridin-3-yl]phenyl}-2-(3-methylphenyl)cyclopro-panecarboxamide] | 7.39 | 7.43 | 7.11 |  |  |  |
| COc1ccc(-c2cc(F)c(NC(=O)C3CC3c3cccc(C)c3)cc2-c2nnn[nH]2)cc1 (racemic) [Example 55, N-[5-Fluoro-4′-methoxy-2-(1H-tetrazol-5-yl)biphenyl-4-yl]-2-(3-methylphenyl)cyclopro-panecarboxamide] | 7.72 | 8.00 | 7.66 |  |  |  |
| CCOc1ccc(-c2c(F)cc(NC(=O)C3CC3c3ccc(Cl)cc3)cc2-c2nnn[nH]2)cn1 (racemic) [Example 61, 2-(4-chlorophenyl)-N-[4-(6-ethoxypyridin-3-yl)-3-fluoro-5-(1H-tetrazol-5-yl)phenyl]cyclopropane-carboxamide] | 7.92 |  | 7.36 |  |  |  |
| CCOc1ccc(-c2cc(C)c(NC(=O)C3CC3c3ccc(Cl)cc3)cc2-c2nnn[nH]2)cn1 (racemic) [Example 64, 2-(4-Chlorophenyl)-N-[4-(6-ethoxypyridin-3-yl)-2-methyl-5-(1H-tetrazol-5-yl)phenyl]cyclopropane-carboxamide] | 7.82 | 7.43 | 7.20 |  |  |  |
| Cc1cccc(C2CC2C(=O)Nc2ccc(-c3ccc(OC(C)C)nc3)c(-c3nnn[nH]3)c2)c1 (racemic) [Example 78, N-[4-(6-isopropoxypyridin-3-yl)-3-(1H-tetrazol-5-yl)phenyl]-2-(3-methylphenyl)cyclopro-panecarboxamide] |  | 8.00 | 8.05 |  |  |  |
| COc1ccc(-c2ccc(NC(=O)C3CC3C3CCCCC3)cc2-c2nnn[nH]2)cc1OC (single isomer, unassigned) [Example 14, 2-Cyclohexyl-N-[3′,4′-dimethoxy-2-(1H-tetrazol-5-yl)biphenyl-4-yl]cyclopropane-carboxamide] |  | 7.57 | 7.70 |  |  |  |
